Calls of active or inactive are those of the source. The rule behind the calls is not given here. A value given as a limit tells only on which side of the number the result lay.

For one assay, the target named is Protein cereblon (Homo sapiens, UniProt Q96SW2). The assay can be described thus: Binding affinity to GST-tagged wild type human CRBN assessed as inhibition constant by TR-FRET assay. On the technique in general: Time-resolved FRET reads energy transfer from a long-lived donor to a nearby acceptor.
Protein cereblon, sequence (Q96SW2 whole entry): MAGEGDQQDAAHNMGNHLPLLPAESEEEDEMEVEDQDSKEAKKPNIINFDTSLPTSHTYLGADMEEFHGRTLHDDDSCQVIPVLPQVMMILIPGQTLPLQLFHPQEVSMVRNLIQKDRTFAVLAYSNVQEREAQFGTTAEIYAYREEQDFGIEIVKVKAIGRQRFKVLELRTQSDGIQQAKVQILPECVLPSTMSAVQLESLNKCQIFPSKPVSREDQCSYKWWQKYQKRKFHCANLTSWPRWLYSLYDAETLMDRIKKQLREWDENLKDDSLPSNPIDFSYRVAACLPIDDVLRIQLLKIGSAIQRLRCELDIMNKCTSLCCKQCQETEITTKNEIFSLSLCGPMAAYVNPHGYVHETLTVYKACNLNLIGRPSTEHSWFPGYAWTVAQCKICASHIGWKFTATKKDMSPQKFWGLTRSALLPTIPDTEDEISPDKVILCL
Assay [1] relates to SKNO-1. The assay can be described thus: Effect on STAT1 level in human SKNO-1 cells upto 5 uM measured for 18 hrs by Western blot analysis. The class given is functional, cell-based. A general note: A western blot detects proteins with antibodies after separation by electrophoresis.
In assay [2] the test system is SKNO-1. As to the kind of experiment: Effect on STAT2 level in human SKNO-1 cells upto 5 uM measured for 18 hrs by Western blot analysis. Format: functional, cell-based.
In assay [3] the test system is SKNO-1. The assay can be described thus: Effect on STAT3 level in human SKNO-1 cells upto 5 uM measured for 18 hrs by Western blot analysis. The class given is functional, cell-based.
The subject of assay [4] is SKNO-1. The assay can be described thus: Effect on STAT4 level in human SKNO-1 cells upto 5 uM measured for 18 hrs by Western blot analysis. The class given is functional, cell-based.
The subject of assay [5] is SKNO-1. As to the kind of experiment: Effect on STAT6 level in human SKNO-1 cells upto 5 uM measured for 18 hrs by Western blot analysis. The class given is functional, cell-based.
Assay [6] deals with T1, Signal transducer and activator of transcription 5A (Homo sapiens) (UniProt P42229).
T1 sequence (whole entry): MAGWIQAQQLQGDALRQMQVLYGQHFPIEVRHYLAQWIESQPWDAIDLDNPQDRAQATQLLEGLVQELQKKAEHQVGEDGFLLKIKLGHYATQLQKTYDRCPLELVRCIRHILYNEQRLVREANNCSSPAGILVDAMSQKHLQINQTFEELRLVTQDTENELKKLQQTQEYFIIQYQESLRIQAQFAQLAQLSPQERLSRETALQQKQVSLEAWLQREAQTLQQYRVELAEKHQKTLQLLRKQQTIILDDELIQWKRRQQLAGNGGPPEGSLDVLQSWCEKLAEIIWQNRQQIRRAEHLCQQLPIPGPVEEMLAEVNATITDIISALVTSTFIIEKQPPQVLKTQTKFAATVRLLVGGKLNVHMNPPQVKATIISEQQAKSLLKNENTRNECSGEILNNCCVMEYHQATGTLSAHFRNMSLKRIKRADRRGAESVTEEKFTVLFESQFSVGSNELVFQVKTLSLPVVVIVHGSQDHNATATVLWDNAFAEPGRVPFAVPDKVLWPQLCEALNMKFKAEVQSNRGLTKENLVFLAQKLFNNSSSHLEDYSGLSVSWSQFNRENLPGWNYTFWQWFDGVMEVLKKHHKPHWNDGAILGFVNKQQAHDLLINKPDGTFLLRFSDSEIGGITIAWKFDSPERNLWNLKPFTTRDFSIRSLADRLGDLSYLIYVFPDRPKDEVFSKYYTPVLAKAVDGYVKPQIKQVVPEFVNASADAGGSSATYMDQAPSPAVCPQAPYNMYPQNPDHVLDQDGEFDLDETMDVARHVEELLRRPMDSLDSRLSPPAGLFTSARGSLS
The assay can be described thus: Inhibition of STAT5 phosphorylation in human MV4-11 cells assessed as reduction in […] phosphorylation at Y694 residue at 0.2 uM measured for 6 hrs by Western blot analysis. The class given is cell-based.

The target of assay [7] is T1, Signal transducer and activator of transcription 5A (Homo sapiens). The assay can be described thus: Inhibition of STAT5 phosphorylation in human MV4-11 cells assessed as reduction in STAT5 level at 1 uM measured for 6 hrs by Western blot analysis. Format: cell-based.
The subject of assay [8] is MV4-11. As to the kind of experiment: Effect on STAT1 level in human MV4-11 cells upto 5 uM measured for 18 hrs by Western blot analysis. The class given is functional, cell-based.
Assay [9] relates to MV4-11. The assay can be described thus: Effect on STAT2 level in human MV4-11 cells upto 5 uM measured for 18 hrs by Western blot analysis. The class given is functional, cell-based.
For assay [10], the system named is MV4-11. As to the kind of experiment: Effect on STAT3 level in human MV4-11 cells upto 5 uM measured for 18 hrs by Western blot analysis. The class given is functional, cell-based.
In assay [11] the test system is MV4-11. As to the kind of experiment: Effect on STAT6 level in human MV4-11 cells upto 5 uM measured for 18 hrs by Western blot analysis. Format: functional, cell-based.
Assay [12] deals with T2, Signal transducer and activator of transcription 5A (Homo sapiens, UniProt P42229).
T2 sequence (P42229 whole entry): T1 sequence (whole entry)
The assay can be described thus: Induction of STAT5 degradation in human SKNO-1 cells measured for 18 hrs by Western blot analysis. The class given is cell-based.

Assay [13] deals with T3, Signal transducer and activator of transcription 6 (Homo sapiens, UniProt P42226).
T3 sequence (P42226 whole entry): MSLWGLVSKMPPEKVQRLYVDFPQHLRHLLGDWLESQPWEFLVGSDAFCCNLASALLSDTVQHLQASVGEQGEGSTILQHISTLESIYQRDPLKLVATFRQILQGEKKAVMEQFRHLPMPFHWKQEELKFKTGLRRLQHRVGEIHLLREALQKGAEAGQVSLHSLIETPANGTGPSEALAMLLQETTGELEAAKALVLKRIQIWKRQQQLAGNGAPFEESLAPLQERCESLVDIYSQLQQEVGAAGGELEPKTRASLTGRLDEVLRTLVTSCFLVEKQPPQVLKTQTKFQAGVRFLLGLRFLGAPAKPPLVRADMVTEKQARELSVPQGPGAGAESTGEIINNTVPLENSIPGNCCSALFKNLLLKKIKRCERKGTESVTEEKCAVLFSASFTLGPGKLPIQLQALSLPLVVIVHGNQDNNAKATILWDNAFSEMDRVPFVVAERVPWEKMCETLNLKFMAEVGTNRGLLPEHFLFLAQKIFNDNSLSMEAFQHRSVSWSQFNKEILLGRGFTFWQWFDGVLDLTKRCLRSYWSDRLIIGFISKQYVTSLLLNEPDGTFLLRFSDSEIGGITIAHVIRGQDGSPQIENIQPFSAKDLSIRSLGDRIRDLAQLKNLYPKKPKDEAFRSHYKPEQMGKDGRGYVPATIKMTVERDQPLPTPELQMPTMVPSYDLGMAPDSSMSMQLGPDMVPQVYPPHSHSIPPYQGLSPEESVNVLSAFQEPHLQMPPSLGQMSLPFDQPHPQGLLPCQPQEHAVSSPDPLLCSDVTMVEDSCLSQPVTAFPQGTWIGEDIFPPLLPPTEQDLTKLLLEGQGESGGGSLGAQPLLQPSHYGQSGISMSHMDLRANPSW
As to the kind of experiment: Induction of STAT6 degradation in human SKNO-1 cells measured for 18 hrs by Western blot analysis. Format: cell-based. The following applies: read-out: DC50.

For assay [14], the target named is T1, Signal transducer and activator of transcription 5A (Homo sapiens). The assay can be described thus: Induction of STAT5 degradation in human SKNO-1 cells assessed as maximal degradation at 0.05 to 5 uM measured for 18 hrs by Western blot analysis relative to control. Format: cell-based. The following applies: dose 0.05-5 µM.
The next assay is filed under the species Homo sapiens. The assay can be described thus: Selectivity ratio of DC50 for induction of STAT5 degradation in human SKNO-1 cells to DC50 for STAT6 degradation in human SKNO-1 cells. Format: cell-based.
In assay [15] the target is T2, Signal transducer and activator of transcription 5A. The assay can be described thus: Binding affinity to N-terminal 6his-tagged human STAT5A (136 to 705 residues) expressed in Escherichia coli BL21-DE3 rosetta cells assessed as inhibition constant by FP assay.
The target in assay [16] is T4, Signal transducer and activator of transcription 5B (Homo sapiens, UniProt P51692).
T4 sequence (P51692 whole entry): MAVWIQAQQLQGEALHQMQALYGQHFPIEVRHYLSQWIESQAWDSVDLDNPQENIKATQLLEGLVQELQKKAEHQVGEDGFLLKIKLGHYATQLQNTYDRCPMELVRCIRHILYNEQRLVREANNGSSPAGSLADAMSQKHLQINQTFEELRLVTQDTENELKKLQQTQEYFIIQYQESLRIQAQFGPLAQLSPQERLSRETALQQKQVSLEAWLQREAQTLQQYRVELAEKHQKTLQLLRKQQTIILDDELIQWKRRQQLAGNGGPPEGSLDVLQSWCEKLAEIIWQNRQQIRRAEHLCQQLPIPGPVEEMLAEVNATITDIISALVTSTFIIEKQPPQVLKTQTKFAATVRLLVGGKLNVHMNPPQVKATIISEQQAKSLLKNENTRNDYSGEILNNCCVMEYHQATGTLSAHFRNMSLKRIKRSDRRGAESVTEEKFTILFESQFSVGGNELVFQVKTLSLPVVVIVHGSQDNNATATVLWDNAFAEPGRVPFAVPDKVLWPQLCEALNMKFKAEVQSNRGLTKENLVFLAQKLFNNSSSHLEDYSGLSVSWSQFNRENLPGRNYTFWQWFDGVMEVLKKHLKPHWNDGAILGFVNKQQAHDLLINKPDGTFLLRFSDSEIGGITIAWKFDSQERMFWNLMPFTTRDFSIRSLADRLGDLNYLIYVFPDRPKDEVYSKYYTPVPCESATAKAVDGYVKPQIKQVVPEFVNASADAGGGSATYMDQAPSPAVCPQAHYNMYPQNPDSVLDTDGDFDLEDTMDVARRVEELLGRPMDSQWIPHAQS
As to the kind of experiment: Binding affinity to STAT5B (unknown origin) assessed as inhibition constant by FP assay.

`CN(CCCC#Cc1cccc2c1CN(C1CCC(=O)N(C)C1=O)C2=O)C(=O)CCN(C(=O)[C@@H]1CCCN1C(=O)[C@@H](NC(=O)c1cc2cc(C(F)(F)P(=O)(O)O)ccc2s1)C(C)(C)C)c1ccc(-c2nccs2)cc1` (some centres undefined): the inhibition constant (Ki) (usually a measure of affinity in units of concentration, obtained from inhibition or displacement) on Protein cereblon is above 5000 nM. The outcome in the assay on SKNO-1 [1], in the assay on SKNO-1 [2], in the assay on SKNO-1 [3], in the assay with SKNO-1 [4], in the assay with SKNO-1 [5] and in the assay with MV4-11 [8] was inactive. Further, the outcome in the assay on MV4-11 [9], with MV4-11 [10] and in the assay with MV4-11 [11] was inactive. Also, the inhibition entry in assay [6] and in assay [7] was “inactive” each time.
With `CC(C)(C)[C@H](NC(=O)c1cc2cc(C(F)(F)P(=O)(O)O)ccc2s1)C(=O)N1CCC[C@H]1C(=O)N(CCC(=O)NCCCC#Cc1cccc2c1CN(C1CCC(=O)NC1=O)C2=O)c1ccc(Br)cc1` (some centres undefined), the DC50 (commonly the midpoint of the concentration-degradation curve) in assay [12] is 230 nM; in [13], above 5000 nM. Further, the maximum response (Emax) (commonly the maximal effect, on the per cent scale that the assay sets) in [14] was above 95%. Also, the Ratio in the assay filed under Homo sapiens is above 20.
In the case of `CN(C)C(=O)CCN(C(=O)[C@@H]1CCCN1C(=O)[C@@H](NC(=O)c1cc2cc(C(F)(F)P(=O)(O)O)ccc2s1)C(C)(C)C)c1ccc(-c2nccs2)cc1`, the inhibition constant (Ki) in assay [15] and in [16] was 1000 nM in each case. For the same molecule, the outcome in the assay on SKNO-1 [1], with SKNO-1 [2], in the assay with SKNO-1 [3], in the assay on SKNO-1 [4], with SKNO-1 [5] and in the assay on MV4-11 [8] was inactive. Moreover, the outcome in the assay with MV4-11 [9], in the assay with MV4-11 [10] and with MV4-11 [11] was inactive. For the same molecule, the inhibition result in assay [6] and in [7] was “inactive” in each case.

The record behind these values is ChEMBL document CHEMBL5380794, “Discovery of a Potent and Selective STAT5 PROTAC Degrader with Strong Antitumor Activity In Vivo in Acute Myeloid Leukemia” (J Med Chem, 2023).
